From article PMC3008316 (Antiviral research, 2009)
Like-named read-outs stand apart in the source and are kept apart here. Marks after values point to notes of the source that are not given here.

What was measured:
[1] = test system: Tacaribe virus (TCRV), strain TRVL 11573
[2] = test system: RVFV vaccine strain MP-12; assay: microbe, parasite or virus in culture; settings: Rift Valley fever virus, Vero 76, read-out: EC50 ± SD (CPER)
[3] = test system: Junin virus (JUNV) vaccine strain Candid 1; assay: microbe, parasite or virus in culture; settings: Mammarenavirus juninense, Vero, read-out: EC50 ± SD (CPER)
[4] = test system: Junin virus (JUNV) vaccine strain Candid 1
[5] = test system: PICV, strain An 4763
[6] = test system: Sandfly fever virus, Naples strain (SFNV)
[7] = test system: PTV, Adames strain; parameters: species or system C57BL/6 mice; settings: mouse, in vivo
[8] = test system: PICV, strain An 4763; format: in vivo, Syrian hamsters; settings: for ED50 (survival) / ALT ± SD / Mean virus titer ± SD, liver / Mean virus titer ± SD, serum / Percentage of animals with detectable virus, liver / Percentage of animals with detectable virus, serum: po; for Survival outcome / Animals protected (survival): n=10
[9] = test system: Junin virus (JUNV) vaccine strain Candid 1; remark: listed apart in the source
[10] = test system: PTV, Adames strain; parameters: species or system Syrian hamsters; settings: hamster, in vivo
[11] = test system: Sandfly fever virus, Naples strain (SFNV); assay: microbe, parasite or virus in culture; settings: sandfly fever Sicilian virus, Vero 76, read-out: EC90 ± SD (VYR)
[12] = test system: Tacaribe virus (TCRV), strain TRVL 11573; assay: microbe, parasite or virus in culture; settings: Mammarenavirus tacaribeense, Vero 76, read-out: EC90 ± SD (VYR)
[13] = test system: phleboviruses (RVFV, PTV, SFNV); assay: organism not typed; format: cell-based; settings: for EC50: read-out: EC50 values, range (CPE reduction assay); for EC90: read-out: EC90 values, range (VYR)
[14] = test system: PTV, Adames strain; assay: microbe, parasite or virus in culture; settings: Punta Toro virus, Vero 76, read-out: EC90 ± SD (VYR)
[15] = test system: Vero cells; settings: monkey
[16] = test system: PTV, Adames strain
[17] = in vitro; settings: monkey, CC50 ± SD
[18] = test system: PTV, Adames strain; remark: listed apart in the source
[19] = test system: Sandfly fever virus, Naples strain (SFNV); remark: listed apart in the source
[20] = test system: Junin virus (JUNV) vaccine strain Candid 1; assay: microbe, parasite or virus in culture; settings: Mammarenavirus juninense, Vero, read-out: EC90 ± SD (VYR)
[21] = test system: Tacaribe virus (TCRV), strain TRVL 11573; assay: microbe, parasite or virus in culture; settings: Mammarenavirus tacaribeense, Vero 76, read-out: EC50 ± SD (CPER)
[22] = test system: PICV, strain An 4763; assay: microbe, parasite or virus in culture; settings: Pichinde virus, Vero, read-out: EC50 ± SD (CPER)
[23] = test system: Sandfly fever virus, Naples strain (SFNV); assay: microbe, parasite or virus in culture; settings: sandfly fever Sicilian virus, Vero 76, read-out: EC50 ± SD (CPER)
[24] = test system: PTV, Adames strain; assay: microbe, parasite or virus in culture; settings: Punta Toro virus, Vero 76, read-out: EC50 ± SD (CPER)
[25] = test system: Tacaribe virus (TCRV), strain TRVL 11573; remark: listed apart in the source
[26] = test system: PICV, strain An 4763; assay: microbe, parasite or virus in culture; settings: Pichinde virus, Vero, read-out: EC90 ± SD (VYR)
[27] = test system: PICV, strain An 4763; remark: listed apart in the source
[28] = test system: RVFV vaccine strain MP-12
[29] = test system: RVFV vaccine strain MP-12; remark: listed apart in the source
[30] = test system: RVFV vaccine strain MP-12; assay: microbe, parasite or virus in culture; settings: Rift Valley fever virus, Vero 76, read-out: EC90 ± SD (VYR)
[31] = in vitro; settings: monkey, CC50 ± SD; remark: listed apart in the source
[32] = rats; ref Y. Furuta, unpublished data; cited from earlier work
[33] = hamster, in vivo, 100 mg/kg/day

## NC(=O)c1nc(F)cnc1O [T-705, 6-fluoro-3-hydroxy-2-pyrazinecarboxamide]
[1]
  SI (CC50/EC50): >187
[2]
  EC50: 27 ± 5 µM
[3]
  EC50: 19 ± 5 µM
[4]
  SI (CC50/EC50): >285
[5]
  SI (CC50/EC50): 194
[6]
  SI (CC50/EC90): 1952
[7]
  ED50 (survival): 159 µmol/kg/day
[8]; hamster, in vivo
  Potency relative to T-1106 based on ALT molar dose response: 2.6 fold
  Potency relative to T-1106 based on ED50: 6.1 times
  Survival compared to placebo: significantly protected
  ED50 (survival): 72 µmol/kg/day
[8]; hamster, in vivo, 25 mg/kg/day
  ALT ± SD: 859 ± 782 international units per liter
  Mean virus titer ± SD, liver: 7.6 ± 0.8 (100)
  Mean virus titer ± SD, serum: 6.6 ± 1.0 (100)
  Percentage of animals with detectable virus, liver: 7.6 ± 0.8 (100) %
  Percentage of animals with detectable virus, serum: 6.6 ± 1.0 (100) %
[8]; hamster, in vivo, 50 mg/kg/day
  Mean virus titer ± SD, liver: 5.8 ± 1.1 (100)
  Mean virus titer ± SD, serum: < 3.8 ± 1.6 (80)
  Percentage of animals with detectable virus, liver: 5.8 ± 1.1 (100) %
  Percentage of animals with detectable virus, serum: < 3.8 ± 1.6 (80) %
[8]; [33]
  Mean virus titer ± SD, liver: < 3.3 ± 0.5 (60)
  Mean virus titer ± SD, serum: < 1.8 (0) ^**
  Percentage of animals with detectable virus, liver: < 3.3 ± 0.5 (60) %
  Percentage of animals with detectable virus, serum: < 1.8 (0) ^** %
[8]
  Survival outcome: complete protection
[8]; 25 mg/kg/day
  Animals protected (survival): 70%
[8]; 50 mg/kg/day
  Animals protected (survival): 80%
[9]
  SI (CC50/EC90): >387
[10]
  ED50 (survival): 112 µmol/kg/day
  Mean virus titer ± SD, liver: < 3.9 ± 1.5 (40)
  Survival compared to placebo: significant protection
[10]; po, 25 mg/kg/day
  ALT ± SD: 820 ± 1148 international units per liter
  Mean virus titer ± SD, liver: < 5.9 ± 1.8 (80)
  Mean virus titer ± SD, serum: < 5.4 ± 3.4 (60)
  Percentage of animals with detectable virus, liver: < 5.9 ± 1.8 (80) %
  Percentage of animals with detectable virus, serum: < 5.4 ± 3.4 (60) %
[10]; po, 50 mg/kg/day
  ALT ± SD: 52 ± 79 international units per liter
  Mean virus titer ± SD, liver: < 3.6 ± 1.7 (40)
  Percentage of animals with detectable virus, liver: < 3.6 ± 1.7 (40) %
[10]; po, 100 mg/kg/day
  ALT ± SD: 38 ± 19 international units per liter
  Mean virus titer ± SD, serum: < 3.1 ± 1.9 (40)
  Percentage of animals with detectable virus, liver: < 3.9 ± 1.5 (40) %
  Percentage of animals with detectable virus, serum: < 3.1 ± 1.9 (40) %
[11]
  EC90: 3 ± 1 µM
[12]
  EC90: 12 ± 4 µM
[13]
  Inhibitory concentrations, range: 3 to 55 µM
  EC50: 27 to 55 µM
  EC90: 3 to 19 µM
[14]
  EC90: 19 ± 11 µM
[15]
  CC50: 4860 ± 409 µM
[16]
  SI (CC50/EC50): >68
[17]
  CC50: > 6360 µM
[18]
  SI (CC50/EC90): >197
[19]
  SI (CC50/EC50): 195
[20]
  EC90: 14 ± 3 µM
[21]
  EC50: 26 ± 13 µM
[22]
  EC50: 25 ± 6 µM
[23]
  EC50: 30 ± 15 µM
[24]
  EC50: 55 ± 35 µM
[25]
  SI (CC50/EC90): >405
[26]
  EC90: 24 ± 5 µM
[27]
  SI (CC50/EC90): 202
[28]
  SI (CC50/EC90): >530
[29]
  SI (CC50/EC50): >236
[30]
  EC90: 12 ± 4 µM
[31]
  CC50: > 5410 µM

## NC(=O)c1nccn([C@@H]2O[C@H](CO)[C@@H](O)[C@H]2O)c1=O [T-1106, 3,4-dihydro-3-oxo-4-β-D-ribofuranosyl-2-pyrazinecarboxamide]
[1]
  SI (CC50/EC50): >6
[2]
  EC50: 111 ± 58 µM
[3]
  EC50: 128 ± 44 µM
[4]
  SI (CC50/EC50): >29
[5]
  SI (CC50/EC50): >24
[6]
  SI (CC50/EC90): >49
[7]
  ED50 (survival): 201 µmol/kg/day
[8]; [33]
  Survival compared to placebo, log-rank analysis: failed to significantly protect
  ALT ± SD: 961 ± 1071 international units per liter
  Mean virus titer ± SD, liver: 7.4 ± 0.4 (100)
  Mean virus titer ± SD, serum: 6.5 ± 1.0 (100)
  Percentage of animals with detectable virus, liver: 7.4 ± 0.4 (100) %
  Percentage of animals with detectable virus, serum: 6.5 ± 1.0 (100) %
[8]; hamster, in vivo
  ED50 (survival): 441 µmol/kg/day
[8]; hamster, in vivo, 25 mg/kg/day
  ALT ± SD: 1354 ± 961 international units per liter
  Mean virus titer ± SD, liver: 7.7 ± 0.6 (100)
  Mean virus titer ± SD, serum: 6.5 ± 1.1 (100)
  Percentage of animals with detectable virus, liver: 7.7 ± 0.6 (100) %
  Percentage of animals with detectable virus, serum: 6.5 ± 1.1 (100) %
[8]; hamster, in vivo, 50 mg/kg/day
  Mean virus titer ± SD, liver: 7.1 ± 1.5 (100)
  Mean virus titer ± SD, serum: < 5.4 ± 2.1 (80)
  Percentage of animals with detectable virus, liver: 7.1 ± 1.5 (100) %
  Percentage of animals with detectable virus, serum: < 5.4 ± 2.1 (80) %
[8]
  Survival outcome: 4 of the 10
[8]; 25 mg/kg/day
  Animals protected (survival): 20%
[8]; 50 mg/kg/day
  Animals protected (survival): 40%
[9]
  SI (CC50/EC90): >33
[10]
  ED50 (survival): 12 µmol/kg/day
  Mean virus titer ± SD, liver: < 4.3 ± 2.1 (40)
  Potency relative to T-705 based on ED50: 9.4 times
  Survival compared to placebo: Significant protection
[10]; po, 25 mg/kg/day
  ALT ± SD: 251 ± 438 international units per liter
  Mean virus titer ± SD, liver: < 4.6 ± 1.7 (80)
  Mean virus titer ± SD, serum: < 4.8 ± 2.9 (60)
  Percentage of animals with detectable virus, liver: < 4.6 ± 1.7 (80) %
  Percentage of animals with detectable virus, serum: < 4.8 ± 2.9 (60) %
[10]; po, 50 mg/kg/day
  ALT ± SD: 802 ± 1149 international units per liter
  Mean virus titer ± SD, liver: < 4.9 ± 1.5 (80)
  Mean virus titer ± SD, serum: < 3.9 ± 2.2 (40)
  Percentage of animals with detectable virus, liver: < 4.9 ± 1.5 (80) %
  Percentage of animals with detectable virus, serum: < 3.9 ± 2.2 (40) %
[10]; po, 100 mg/kg/day
  ALT ± SD: 446 ± 959 international units per liter
  Mean virus titer ± SD, serum: < 3.6 ± 2.6 (40)
  Percentage of animals with detectable virus, liver: < 4.3 ± 2.1 (40) %
  Percentage of animals with detectable virus, serum: < 3.6 ± 2.6 (40) %
[11]
  EC90: 76 ± 15 µM
[12]
  EC90: 296 ± 273 µM
[13]
  Greater sensitivity of RVFV to inhibitory activity: ~ 5 times
  Inhibitory concentrations, range: 76 to 743 µM
  EC50: 111 to 743 µM
  EC90: 76 to 576 µM
[14]
  EC90: 576 ± 450 µM
[16]
  SI (CC50/EC50): >5
[17]
  CC50: > 3720 µM
[18]
  SI (CC50/EC90): >6
[19]
  SI (CC50/EC50): >24
[20]
  EC90: 114 ± 28 µM
[21]
  EC50: 619 ± 205 µM
[22]
  EC50: 154 ± 39 µM
[23]
  EC50: 152 ± 13 µM
[24]
  EC50: 743 ± 297 µM
[25]
  SI (CC50/EC90): >13
[32]
  Liver tissue:plasma ratio relative to T-705: ~ 50 fold
[26]
  EC90: 173 ± 93 µM
[27]
  SI (CC50/EC90): >21
[28]
  SI (CC50/EC90): >25
[29]
  SI (CC50/EC50): >33
[30]
  EC90: 146 ± 129 µM
[31]
  CC50: > 3720 µM
